PubChem BioAssay AID651893 (Broad Institute, 2012)

Test system: T. b. rhodesiense STIB900 proliferation, Alamar blue, 72 h
Test: African trypanosome bloodstream form growth inhibition – STIB900 strain, plate reader, cherry pick, dose response (AID 651893)

Compound: C[C@@H]1CN([C@@H](C)CO)C(=O)c2cccc(NC(=O)c3ccncc3)c2O[C@H]1CN(C)Cc1ccc(Oc2ccccc2)cc1
- IC50: 715 nM
